The values below come from patent US10344019B2 (priority 2010, dated 2019).

Holding throughout (assay): microbe, parasite or virus in culture
Format in all cases: cell-based

Experiment [1] concerns HCV 1b RLuc cells (dicistronic genotype 1b Con1 replicon, RLuc reporter). The settings on record: Hepatitis C virus, read-out: 1b (nM). The method, then:
(§1) Evaluation of cell-based anti-HCV activity: Antiviral potency (EC50) was determined using a Renilla luciferase (RLuc)-based HCV replicon reporter assay. To perform the assay for genotype 1 and 2a JFH-1, HCV 1b RLuc cells (harboring a dicistronic genotype 1b Con1 replicon that encodes a RLuc reporter), or HCV 1a RLuc cells (harboring a dicistronic genotype 1a H77 replicon that encodes a RLuc reporter), or HCV 2a JFH-1 Rluc cells (harboring a dicistronic genotype 2a JFH-1 replicon that encodes a RLuc reporter) were dispensed into 384-well plates. To perform the assay for genotype 2a (with M31 present) or 2b, HCV 2a Rluc or 2b Rluc cells (both with M31 present) harboring a dicistronic NS5A chimeric genotype 2a JFH-1 replicon that encodes a RLuc reporter and either genotype 2a J6 strain NS5A gene or genotype 2b MD2b-1 NS5A gene (based on Los Alamos HCV database isolates, both with M31 present) respectively, were dispensed into 384-well plates. To perform the assay for genotype 3 and 4, HCV 3a RLuc or 4a Rluc cells harboring a dicistronic NS5A chimeric genotype 1b Con1 replicon that encodes a RLuc reporter and either a consensus genotype 3a NS5A gene or genotype 4a NS5A gene (based on Los Alamos HCV database isolates) respectively, were dispensed into 384-well plates. Compounds were re-suspended in DMSO at a concentration of 10 mM and serially diluted in DMSO either manually or using an automated pipeting instrument. Serially diluted compounds were mixed with cell culture media and added to the seeded cells. […] 72 hours later, cells were lysed and Renilla luciferase activity quantified as recommended by the manufacturer (Promega-Madison, Wis.). Non-linear regression was performed to calculate EC50 values.

Experiment [2] relates to HCV 2a JFH-1 Rluc cells (dicistronic genotype 2a JFH-1 replicon, RLuc reporter). Particulars: genotype 2a JFH-1 replicon, read-out: 2a JFH. The method, then:
as §1

The test system of experiment [3] is HCV 3a RLuc cells (NS5A chimeric genotype 1b Con1 replicon with consensus genotype 3a NS5A gene). The method, then:
as §1

In experiment [4] the test system is HCV 1a RLuc cells (dicistronic genotype 1a H77 replicon, RLuc reporter). The settings on record: genotype 1a H77 replicon, read-out: 1a. How it is done:
as §1
A general note: In antiviral work, replicon cells carry a viral genome segment that copies itself.

The mark [5] stands for this setting: Hepatitis C virus, RLuc reporter.
[6] abbreviates: Hepatitis C virus, read-out: 3a, genotype 3a NS5A chimeric 1b Con1 replicon.
Where [7] appears, read: Hepatitis C virus, 72 h, Table 2, 72 hours.
Where [8] appears, read: Hepatitis C virus, read-out: 3a, Table 2, genotype 3a NS5A chimeric replicon.
The mark [9] stands for this setting: Hepatitis C virus, 72 h, Table 1, 72 hours.

Where two headings read alike, the source gives them in different places.

With `COC(=O)NC(C(=O)N1CCC[C@H]1c1ncc(-c2ccc3c(c2)C(F)(F)c2cc(-c4ccc(-c5cnc([C@@H]6CCCN6C(=O)[C@H](NC(=O)OC)c6ccccc6)[nH]5)cc4)ccc2-3)[nH]1)C(C)C` (some centres unmarked) [Example 194], the EC50 in experiment [1] is 0.01 nM; in experiment [2] (setting [5]), 1 to 44 nM; in experiment [3] (setting [6]), 1 to 4.99 nM; in experiment [4] (setting [5]), 1 to 44 nM.

On to `COC(=O)N[C@H](C(=O)N1CCC[C@H]1c1ncc(-c2ccc3cc(-c4ccc(-c5cnc([C@@H]6C[C@H](C)CN6C(=O)[C@H](NC(=O)OC)c6ccccc6)[nH]5)cc4)ccc3c2)[nH]1)C(C)C` [Example 130], for which the EC50 is 0.006 nM in experiment [1], 0.001 to 0.999 nM in experiment [2] (setting [5]), 0.001 to 0.99 nM in experiment [3] (setting [6]) and 0.001 to 0.999 nM in experiment [4] (setting [5]).

For `COC(=O)N[C@H](C(=O)N1C[C@H](C)C[C@H]1c1ncc(-c2ccc3cc(-c4ccc(-c5cnc([C@@H]6CCCN6C(=O)[C@H](NC(=O)OC)c6cccc(C)c6)[nH]5)cc4)ccc3c2)[nH]1)C(C)C` [Example 184], the EC50 in experiment [1] was 0.009 nM; in experiment [2] (setting [5]), 0.001 to 0.999 nM; in experiment [3] (setting [6]), 0.001 to 0.99 nM; in experiment [4] (setting [5]), 0.001 to 0.999 nM.

Regarding `COC(=O)N[C@H](C(=O)N1CCC[C@H]1c1ncc(-c2ccc(-c3ccc4cc(-c5cnc([C@@H]6CCCN6C(=O)[C@@H](NC(=O)OC)C(C)C)[nH]5)ccc4c3)cc2)[nH]1)c1ccc(OC)cc1` [Example 108], the EC50 in experiment [1] is 0.028 nM; in experiment [2] (setting [5]), 1 to 44 nM; in experiment [3] (setting [6]), more than 5 nM; in experiment [4] (setting [5]), 0.001 to 0.999 nM.

Turning to `CCO[C@H]1C[C@@H](c2ncc(-c3ccc(-c4ccc5cc(-c6cnc([C@@H]7CCCN7C(=O)[C@@H](NC(=O)OC)C(C)C)[nH]6)ccc5c4)cc3)[nH]2)N(C(=O)[C@@H](c2ccccc2)N(C)C)C1` [Example 158], the EC50 in experiment [1] is 0.01 nM; in experiment [2] (setting [5]) it was 0.001 to 0.999 nM; in experiment [3] (setting [6]), 0.001 to 0.99 nM; in experiment [4] (setting [5]) it was 0.001 to 0.999 nM.

Take `COC(=O)NC(C(=O)N1CCC[C@H]1c1ncc(-c2ccc(-c3ccc4cc(-c5cnc([C@@H]6CCCN6C(=O)[C@@H](NC(=O)OC)C(C)C)[nH]5)ccc4c3)cc2)[nH]1)c1ccccc1Cl` (some centres unmarked) [Example 104]: the EC50 in experiment [1] was 0.007 nM; in experiment [2] (setting [5]), 0.001 to 0.999 nM; in experiment [3] (setting [6]), 0.001 to 0.99 nM; in experiment [4] (setting [5]) it was 0.001 to 0.999 nM.

Regarding `COC(=O)N[C@H](C(=O)N1C[C@H](C)C[C@H]1c1ncc(-c2ccc3cc(-c4ccc(-c5cnc([C@@H]6CCCN6C(=O)[C@H](NC(=O)OC)c6ccccc6)[nH]5)cc4)ccc3c2)[nH]1)C(C)C` [Example 132], the EC50 in experiment [1] was 0.003 nM; in experiment [2] (setting [5]) it was 0.001 to 0.999 nM; in experiment [3] (setting [6]) it was 0.001 to 0.99 nM; in experiment [4] (setting [5]), 0.001 to 0.999 nM.

`COC(=O)N[C@H](C(=O)N1CCC[C@H]1c1nc(-c2ccc3cc(-c4ccc(-c5cnc([C@@H]6CCCN6C(=O)[C@@H](c6ccccc6)N(C)C)[nH]5)cc4)ccc3c2)c[nH]1)C(C)C` [Example 31]: the EC50 in experiment [1] (72 h) was 0.014 nM; in experiment [2] (setting [7]), 0.001 to 0.999 nM; in experiment [3] (setting [8]), 0.001 to 0.99 nM; in experiment [4] (setting [7]), 0.001 to 0.999 nM.

As to `COC(=O)N[C@H](C(=O)N1C[C@@H](C#N)C[C@H]1c1nc2ccc(-c3ccc(-c4ccc5c(c4)CCc4nc([C@@H]6CCCN6C(=O)[C@H](NC(=O)OC)c6ccccc6)[nH]c4-5)cc3)cc2[nH]1)C1CCOCC1` [Example 167], the EC50 is 0.048 nM in experiment [1], 0.001 to 0.999 nM in experiment [2] (setting [5]), 0.001 to 0.99 nM in experiment [3] (setting [6]) and 0.001 to 0.999 nM in experiment [4] (setting [5]).

Regarding `COC(=O)N[C@H](C(=O)N1CC(=O)C[C@H]1c1ncc(-c2ccc(-c3ccc4cc(-c5cnc([C@@H]6CCCN6C(=O)[C@@H](c6ccccc6)N(C)C)[nH]5)ccc4c3)cc2)[nH]1)C(C)C` [Example 33], the EC50 in experiment [1] (72 h) is 0.009 nM; in experiment [2] (setting [7]), 0.001 to 0.999 nM; in experiment [3] (setting [8]), 0.001 to 0.99 nM; in experiment [4] (setting [7]), 0.001 to 0.999 nM.

As for `COC(=O)N[C@H](C(=O)N1CC2(C[C@H]1c1ncc(-c3ccc4c(c3)C(F)(F)c3cc(-c5ccc6nc(C7[C@H]8CC[C@H](C8)N7C(=O)[C@@H](NC(=O)OC)C(C)C)[nH]c6c5)ccc3-4)[nH]1)OCCO2)C(C)C` (some centres unmarked) [Example 38], the EC50 in experiment [1] (72 h) was 0.003 nM; in experiment [2] (setting [7]) it was 1 to 44 nM; in experiment [3] (setting [8]) it was more than 5 nM; in experiment [4] (setting [7]), 0.001 to 0.999 nM.

For `COC(=O)N(C)[C@H](C(=O)N1CCC[C@H]1c1ncc(-c2ccc3cc(-c4ccc(-c5cnc([C@@H]6CCCN6C(=O)C(c6ccccc6)N6CCOCC6)[nH]5)cc4)ccc3c2)[nH]1)C(C)C` (some centres unmarked) [Example 119], the EC50 in experiment [1] was 0.02 nM; in experiment [2] (setting [5]) it was 0.001 to 0.999 nM; in experiment [3] (setting [6]), 0.001 to 0.99 nM; in experiment [4] (setting [5]) it was 0.001 to 0.999 nM.

In the case of `COC(=O)N[C@H](C(=O)N1C[C@H](C)C[C@H]1c1ncc(-c2ccc(-c3ccc4cc(-c5cnc([C@@H]6C[C@H](C#N)CN6C(=O)[C@H](NC(=O)OC)c6ccccc6)[nH]5)ccc4c3)cc2)[nH]1)C(C)C` [Example 113], the EC50 in experiment [1] is 0.014 nM; in experiment [2] (setting [5]) it was 0.001 to 0.999 nM; in experiment [3] (setting [6]), 0.001 to 0.99 nM; in experiment [4] (setting [5]), 0.001 to 0.999 nM.

`COC(=O)N[C@H](C(=O)N1C[C@H](C#N)C[C@H]1c1ncc(-c2ccc3cc(-c4ccc(-c5cnc([C@@H]6CCCN6C(=O)[C@@H](c6ccccc6)N(C)C)[nH]5)cc4)ccc3c2)[nH]1)C(C)C` [Example 144]: the EC50 was 0.013 nM in experiment [1], 0.001 to 0.999 nM in experiment [2] (setting [5]), 0.001 to 0.99 nM in experiment [3] (setting [6]) and 0.001 to 0.999 nM in experiment [4] (setting [5]).

With `COC(=O)NC(C(=O)N1CCC[C@@H]1c1ncc(-c2cc3c4c(c2)OCc2cc(-c5cnc([C@H]6CCCN6C(=O)[C@@H](NC(=O)OC)C(C)C)[nH]5)cc(c2-4)OC3)[nH]1)C(C)C` (some centres unmarked) [Example 11], the EC50 in experiment [1] (72 h) is 0.258 nM; in experiment [2] (setting [9]), 0.001 to 0.999 nM; in experiment [4] (setting [9]), 1 to 44 nM.

In the case of `COC(=O)N[C@H](C(=O)N1CCC[C@H]1c1ncc(-c2ccc3c(c2)CCc2cc(-c4cnc([C@@H]5CCCN5C(=O)[C@H](NC(=O)OC)c5ccccc5)[nH]4)ccc2-3)[nH]1)C(C)C` [Example 180], the EC50 in experiment [1] is 0.007 nM; in experiment [2] (setting [5]) it was 0.001 to 0.999 nM; in experiment [3] (setting [6]), 0.001 to 0.99 nM; in experiment [4] (setting [5]), 0.001 to 0.999 nM.

On to `COC(=O)N[C@H](C(=O)N1CCC[C@H]1c1ncc(-c2ccc3cc(-c4ccc(-c5cnc([C@@H]6CCCN6C(=O)[C@H](NC(=O)OC(C)(C)C)c6ccccc6)[nH]5)cc4)ccc3c2)[nH]1)C(C)C` [Example 186], for which the EC50 in experiment [1] was 0.004 nM; in experiment [2] (setting [5]), 0.001 to 0.999 nM; in experiment [4] (setting [5]), 0.001 to 0.999 nM.

For `COC(=O)NC(C(=O)N1C[C@H](C)C[C@H]1c1ncc(-c2ccc(-c3ccc4cc(-c5cnc([C@@H]6CCCN6C(=O)[C@@H](NC(=O)OC)C(C)C)[nH]5)ccc4c3)cc2)[nH]1)c1cnccn1` (some centres unmarked) [Example 255], the EC50 in experiment [1] was 0.015 nM; in experiment [2] (setting [5]), 1 to 44 nM; in experiment [4] (setting [5]), 0.001 to 0.999 nM.

As to `COC(=O)N[C@H](C(=O)N1CCC[C@H]1c1ncc(-c2ccc3cc(-c4ccc(-c5cnc([C@@H]6CCCN6C(=O)[C@@H](NC(=O)OCc6ccccc6)C6CCSCC6)[nH]5)cc4)ccc3c2)[nH]1)C(C)C` [Example 276], the EC50 in experiment [2] (RLuc reporter) and in experiment [4] (RLuc reporter) was more than 44 nM in each case.

On to `COC(=O)N[C@H](C(=O)N1CCC[C@H]1c1ncc(-c2ccc3cc(-c4ccc(-c5cnc([C@@H]6C[C@@H](F)CN6C(=O)[C@H](NC(=O)OC)c6ccccc6)[nH]5)cc4)ccc3c2)[nH]1)C(C)C` [Example 140], for which the EC50 in experiment [3] (read-out: 3a, genotype 3a NS5A chimeric 1b Con1 replicon) is 0.001 to 0.99 nM; in experiment [4] (RLuc reporter), 0.001 to 0.999 nM.

`COC(=O)NC(C(=O)N1C[C@H](C)C[C@H]1c1ncc(-c2ccc(-c3ccc4cc(-c5cnc([C@@H]6CCCN6C(=O)[C@@H](NC(=O)OC)C6CCOCC6)[nH]5)ccc4c3)cc2)[nH]1)c1cnccn1` (some centres unmarked) [Example 254]: the results for the EC50 in experiment [1], in experiment [2] (setting [5]) and in experiment [4] (setting [5]) were 0.077 nM, 0.001 to 0.999 nM and 0.001 to 0.999 nM, respectively.

Consider `COC(=O)N[C@H](C(=O)N1CCC[C@H]1c1ncc(-c2ccc3c(c2)CCc2cc(-c4cnc([C@@H]5CCCN5C(=O)C(c5ccccc5)N(C)C)[nH]4)ccc2-3)[nH]1)C(C)C` (some centres unmarked) [Example 190], for which the EC50 in experiment [3] (setting [6]) was in the range of 0.001 to 0.99 nM.
